{"source": "paper PMC10851555", "about": "“Safinamide, an inhibitor of monoamine oxidase, modulates the magnitude, gating, and hysteresis of sodium ion current” (BMC Pharmacology & Toxicology, 2024)", "key": {"[1]": {"system": "voltage-gated sodium ion (NaV) channels in pituitary GH3 cells", "test": "Whole-cell patch-clamp of INa induced by a 30-ms depolarizing pulse (−100 to −10 mV) in GH3 cells", "format": "cell-based, rat", "details": "for amplitude of INa(L) / amplitude of INa(T): 1 min after addition; for amplitude of INa(L): control 18 ± 3 pA; for amplitude of INa(T): control 512 ± 23 pA; for EC50: GH3 cells, modified Hill equation"}, "[2]": {"system": "single NaV channels in GH3 cells", "test": "Cell-attached single-channel NaV current recordings in GH3 cells", "format": "cell-based, rat", "details": "n = 7", "experimental": "The composition of the external or bath solution [4-(2-hydroxyethyl)-1-piperazineethanesulfonic acid (HEPES)-buffered normal Tyrode’s solution] was as follows: 136.5 mM NaCl, 1.8 mM CaCl2, 5.4 mM KCl, 0.53 mM MgCl2, 5.5 mM glucose, and 5.5 mM HEPES–NaOH (pH 7.4). To measure K^+ currents (data not shown), we filled a patch pipette with an internal solution comprising 140 mM KCl, 1 mM MgCl2, 3 mM adenosine 5′-triphosphate disodium salt, 0.1 mM guanosine 5′-triphosphate disodium salt, 0.1 mM ethylene glycol tetraacetic acid, and 5 mM HEPES–KOH buffer (pH 7.2). To record the whole-cell INa, the K^+ in the internal solution was substituted with Cs^+, and the pH of the solution was adjusted to 7.2 by adding cesium hydroxide. In the single-channel experiments performed to record NaV currents, the pipette was filled with a Na^+-rich solution containing 136 mM NaCl, 0.53 mM MgCl2, 5.5 mM glucose, and 5.5 mM HEPES–NaOH (pH 7.2). The bath medium was a K^+-rich solution comprising 130 mM KCl, 10 mM NaCl, 3 mM MgCl2, 6 mM glucose, and 10 mM HEPES-KOH (pH 7.4). The solutions and culture media were generally filtered on the day of use by using sterile Acrodisc Syringe Filters containing a 0.2-μm Supor Membrane (Bio-Check; New Taipei City, Taiwan).\nSingle-channel NaV currents induced by depolarizing pulses ranging from −100 to −10 mV were measured and subsequently analyzed using pCLAMP 10.7. The opening events of the channels were generally evaluated through multi-Gaussian adjustments of the distribution of amplitude across channels. Functional independence between channels was determined by comparing the observed stationary probabilities with the values calculated based on the binomial law. For dwell-time analyses, only a single channel was used in the patch-clamp experiment.\nTo elucidate the mechanisms underlying the effects of SAF on the magnitude of INa, we investigated the actions of SAF and SAF plus MGB on single-channel NaV currents. This experiment was performed using the cell-attached configuration of the voltage-clamp test. Test cells were placed in K^+-rich solution, and the recording pipette was filled with Na^+-rich solution. SAF (10 μM) increased channel activity and decelerated current inactivation when the cells were exposed to depolarization stimuli ascending from –100 to –10 mV (rate of 0.1 Hz; Fig. 9A). Furthermore, the addition of MGB (10 μM) in the presence of 10 μM SAF reduced the probability of channel opening. […] Moreover, with the presence of 10 μM SAF, the mean open time of NaV channels was prolonged to […] (n = 7, P < 0.05) msec from a control value of 2.3 ± 0.3 msec (n = 7). […] Consistent with these findings, the mean open time of the NaV channel in the presence of 10 μM SAF (5.9 ± 1.1 ms; n = 7; P < 0.05) was longer than that in the control period (2.3 ± 0.3 ms, n = 7); the subsequent further addition of 10 μM MGB decreased the mean open time to 3.7 ± 0.7 ms (n = 7, P < 0.05) (Fig. 9B). […] MGB added during SAF exposure reversed the SAF-induced increase in NaV channel activity."}, "[3]": {"design": "method as in PMID 15082032", "details": "cited from earlier work"}, "[4]": {"system": "MAO-B", "details": "read-out: IC50 for inhibition of MAO-B activity; cited from earlier work"}}, "note": "Several values for one entry are separate records, joined by “and”; a condition that tells them apart may be missing. Identical values can stand only once. Like-named read-outs stand apart in the source and are kept apart here."}
{"smiles": "C[C@H](NCc1ccc(OCc2cccc(F)c2)cc1)C(N)=O", "note": "[SAF, (S)-2-((4-((3-fluorobenzyl)oxy)benzyl)amino)propanamide]", "values": [{"measurement": "amplitude of INa(L)", "setting": "[1]; 10 μM SAF, n = 8", "value": "54 ± 9", "unit": "pA"}, {"measurement": "amplitude of INa(T)", "setting": "[1]; 10 μM SAF, n = 8", "value": "1387 ± 131", "unit": "pA"}, {"measurement": "time constant of the fast component of INa(T) inactivation", "setting": "[1]; 30 μM SAF", "value": "no evident change"}, {"measurement": "amplitude of INa(L)", "setting": "[1]; 30 μM SAF, n = 8", "value": "106 ± 17", "unit": "pA"}, {"measurement": "amplitude of INa(T)", "setting": "[1]; 30 μM SAF, n = 8", "value": "1991 ± 153", "unit": "pA"}, {"measurement": "time constant τinact(S), slow component of INa(T) inactivation", "setting": "[1]; 30 μM SAF, control 5.1 ± 0.7 ms, n = 8", "value": "10.2 ± 1.1", "unit": "ms"}, {"measurement": "maximal conductance of INa", "setting": "[1]; 10 mM SAF (so in the source)", "value": "increased"}, {"measurement": "sloping factor of the steady-state inactivation curve", "setting": "[1]; 10 mM SAF (so in the source)", "value": "no change"}, {"measurement": "shift of steady-state inactivation curve of INa to the rightward direction", "setting": "[1]; 10 mM SAF (so in the source), two-step voltage-clamp protocol, n = 7", "value": "[…]"}, {"measurement": "half-maximal activation voltage of INa(T) (G–V relationship)", "setting": "[1]; 3 or 10 μM SAF", "value": "shifted to more negative potentials"}, {"measurement": "EC50", "setting": "[1]; current at beginning of 30-ms pulse −100 to −10 mV, read-out: EC50 for stimulation of transient INa [INa(T)]", "value": 27.1, "unit": "µM"}, {"measurement": "EC50", "setting": "[1]; current at end of 30-ms pulse −100 to −10 mV, read-out: EC50 for stimulation of late INa [INa(L)]", "value": 4.8, "unit": "µM"}, {"measurement": "amplitude of INa(L) after the removal of SAF", "setting": "[1]; washout, n = 8", "value": "20 ± 3", "unit": "pA"}, {"measurement": "amplitude of INa(T) after the removal of SAF", "setting": "[1]; washout, n = 8", "value": "523 ± 24", "unit": "pA"}, {"measurement": "channel activity (open-state probability) of NaV channels", "setting": "[2]; 10 μM SAF, control 0.027 ± 0.007", "value": "0.091 ± 0.006"}, {"measurement": "mean open time of the NaV channel", "setting": "[2]; 10 μM SAF, control 2.3 ± 0.3 ms, second statement (Fig. 9B)", "value": "5.9 ± 1.1", "unit": "ms"}, {"measurement": "mean open time of NaV channels", "setting": "[2]; 10 μM SAF, control 2.3 ± 0.3 msec, first statement", "value": "6.5 ± 0.7", "unit": "ms"}, {"measurement": "amplitude of the single-channel current", "setting": "[2]; SAF 10 μM, control 2.01 ± 0.35 pA", "value": "2.03 ± 0.37", "unit": "pA"}, {"measurement": "maximal plasma concentration", "setting": "[3]; single 2.5 mg/kg dose, 2.5 mg/kg", "value": "[…]"}, {"measurement": "maximal plasma concentration", "setting": "[3]; single 5.0 mg/kg dose, 5 mg/kg", "value": "[…]"}, {"measurement": "maximal plasma concentration", "setting": "[3]; single 10.0 mg/kg dose, 10 mg/kg", "value": "[…]"}, {"measurement": "IC50", "setting": "[4]", "value": "[…]"}]}
